In data set [1] the target is T1, Amylin receptor AMY3; CALCR/RAMP3 (Homo sapiens, UniProt O60896+P30988).
T1 sequence (P30988 whole entry): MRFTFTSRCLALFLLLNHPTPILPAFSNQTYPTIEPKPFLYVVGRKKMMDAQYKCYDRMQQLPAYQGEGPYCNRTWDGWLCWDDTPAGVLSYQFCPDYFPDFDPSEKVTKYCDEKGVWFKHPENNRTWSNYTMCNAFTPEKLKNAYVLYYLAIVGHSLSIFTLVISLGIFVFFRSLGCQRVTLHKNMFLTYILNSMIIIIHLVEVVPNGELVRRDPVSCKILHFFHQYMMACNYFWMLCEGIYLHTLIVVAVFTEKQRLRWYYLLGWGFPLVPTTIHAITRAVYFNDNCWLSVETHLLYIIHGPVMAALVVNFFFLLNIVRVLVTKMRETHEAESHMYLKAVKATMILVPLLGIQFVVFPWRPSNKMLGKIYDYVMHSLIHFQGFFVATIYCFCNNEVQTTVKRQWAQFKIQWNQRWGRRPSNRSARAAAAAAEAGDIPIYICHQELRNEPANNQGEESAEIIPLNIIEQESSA
T1 sequence (O60896 whole entry): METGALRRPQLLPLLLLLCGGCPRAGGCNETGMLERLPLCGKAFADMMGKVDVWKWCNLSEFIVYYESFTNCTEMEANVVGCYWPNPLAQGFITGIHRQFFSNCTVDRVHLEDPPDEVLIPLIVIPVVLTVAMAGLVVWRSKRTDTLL
Kind of data set: Displacement of [125I]-labeled rat amylin from human amylin receptor expressed in BHK tkts13 whole cells co-expressing RAMP3 incubated for 60 mins by scintillation proximity assay. It counts as cell-based. On the technique in general: Loss of bound radioactivity is the signal in a displacement assay; it reports binding, not function.

Data set [2] addresses T1, Amylin receptor AMY3; CALCR/RAMP3. Kind of data set: Agonist activity at human amylin receptor expressed in BHK570 cells co-expressing RAMP3 assessed as increase in intracellular cAMP concentration incubated for 3 hrs in absence of albumin by CRE luciferase reporter gene assay. It counts as functional, cell-based. (In a reporter assay the amount or activity of a reporter protein is the signal.)

A short description of data set [3]: Solubility in 100 mM glycylglycine buffer at pH 3.0 incubated for 18 hrs by UPLC analysis. It counts as physicochemical.
Data set [4] is described as follows: Solubility in 100 mM bistrispropane buffer at pH 7.0 incubated for 18 hrs by UPLC analysis. It counts as physicochemical.
Data set [5] is described as follows: Solubility in 100 mM bistrispropane buffer at pH 6.5 incubated for 18 hrs by UPLC analysis. It counts as physicochemical.
In a further data set the target is T2, Calcitonin receptor (Homo sapiens, UniProt P30988).
T2 sequence (P30988 whole entry): T1 sequence (P30988 whole entry)
The data set can be described thus: Agonist activity at human calcitonin receptor expressed in BHK570 cells assessed as increase in intracellular cAMP concentration incubated for 3 hrs in absence of albumin by CRE luciferase reporter gene assay. In kind it is functional, cell-based.

Data set [6] in a line: Solubility in 100 mM bistrispropane buffer at pH 8.0 incubated for 18 hrs by UPLC analysis. It counts as physicochemical.
A short description of data set [7]: Solubility in 100 mM glycylglycine buffer at pH 5.0 incubated for 18 hrs by UPLC analysis. In kind it is physicochemical.
The nature of data set [8]: Solubility in 100 mM bistrispropane buffer at pH 6.0 incubated for 18 hrs by UPLC analysis. In kind it is physicochemical.
Data set [9] in a line: Solubility in 100 mM glycylglycine buffer at pH 4.0 incubated for 18 hrs by UPLC analysis. In kind it is physicochemical.
Data set [10] can be described thus: Solubility in 100 mM bistrispropane buffer at pH 7.5 incubated for 18 hrs by UPLC analysis. In kind it is physicochemical.

Numbered stars: 1 amine (or outer) side, 2 acyl side, 3 side chain; on linkers, the order of the positions; unused ones are H or OH. Peptide text beside a SMILES is read from it. * marks the point of attachment. C18 diacid = O=C(O)CCCCCCCCCCCCCCCCC(=O)*; γGlu = O=C(O)[C@H](CCC(=O)[*:2])N[*:1]; C14 diacid = O=C(O)CCCCCCCCCCCCC(=O)*

This passage reports IC50, EC50 and solubility results from ChEMBL document CHEMBL4420076, “Amylin and calcitonin receptor agonist” (2017).

In the case of `CC(C)C[C@H](NC(=O)[C@H](C)NC(=O)[C@H](CC(C)C)NC(=O)[C@@H](NC(=O)[C@H](CO)NC(=O)[C@H](CC(C)C)NC(=O)[C@H](CCC(=O)O)NC(=O)[C@H](CO)NC(=O)[C@H](C)NC(=O)[C@H](CCC(=O)O)NC(=O)CCCCCCCCCCCCCCCCC(=O)O)[C@@H](C)O)C(=O)NCC(=O)N[C@@H](CCCNC(=N)N)C(=O)N[C@@H](CC(C)C)C(=O)N[C@@H](CO)C(=O)N[C@@H](C)C(=O)N[C@@H](CCC(=O)O)C(=O)N[C@@H](CC(C)C)C(=O)N[C@@H](Cc1cnc[nH]1)C(=O)N[C@@H](CCC(=O)O)C(=O)N[C@@H](CC(C)C)C(=O)N[C@@H](C)C(=O)N[C@H](C(=O)N[C@@H](CC(C)C)C(=O)N1CCC[C@H]1C(=O)N[C@@H](CCCNC(=N)N)C(=O)N[C@H](C(=O)N[C@@H](CCC(=O)O)C(=O)N[C@H](C(=O)NCC(=O)N1CCC[C@H]1C(=O)N[C@@H](CCC(=O)O)C(=O)N[C@@H](CO)C(=O)N1CCC[C@H]1C(N)=O)[C@@H](C)O)[C@@H](C)O)[C@@H](C)O` ({C18 diacid}-EASELSTLALGRLSAELHELATLPRTETGPESP-NH2), the IC50 in data set [1] was 275 pM. For the same compound, the EC50 is 9 pM in [2] and 7 pM at Calcitonin receptor. The solubility at 18 h in data set [3], in data set [4], in data set [5], in data set [6], in data set [7] and in data set [8] was ≥ 200 µM throughout. Further, the solubility at 18 h in data set [9] and in data set [10] was ≥ 200 µM each time.

Regarding `CC(C)C[C@H](NC(=O)[C@H](C)NC(=O)[C@H](C)NC(=O)[C@@H](NC(=O)[C@H](CO)NC(=O)[C@H](Cc1cnc[nH]1)NC(=O)[C@H](CCC(=O)O)NC(=O)[C@H](CO)NC(=O)[C@H](C)NC(=O)[C@H](CCC(=O)O)NC(=O)CCCCCCCCCCCCCCCCC(=O)O)[C@@H](C)O)C(=O)NCC(=O)N[C@@H](CCCNC(=N)N)C(=O)N[C@@H](CC(C)C)C(=O)N[C@@H](CO)C(=O)N[C@@H](C)C(=O)N[C@@H](CCC(=O)O)C(=O)N[C@@H](CC(C)C)C(=O)N[C@@H](Cc1cnc[nH]1)C(=O)N[C@@H](CCC(=O)O)C(=O)N[C@@H](CC(C)C)C(=O)N[C@@H](C)C(=O)N[C@H](C(=O)N[C@@H](CC(C)C)C(=O)N1CCC[C@H]1C(=O)N[C@@H](CCCNC(=N)N)C(=O)N[C@H](C(=O)N[C@@H](CCC(=O)O)C(=O)N[C@H](C(=O)NCC(=O)N1CCC[C@H]1C(=O)N[C@@H](CCC(=O)O)C(=O)N[C@@H](CO)C(=O)N1CCC[C@H]1C(N)=O)[C@@H](C)O)[C@@H](C)O)[C@@H](C)O` ({C18 diacid}-EASEHSTAALGRLSAELHELATLPRTETGPESP-NH2), in [1], the IC50 was 832 pM. The EC50 in data set [2] is 8 pM; on Calcitonin receptor, 6 pM. Besides, the solubility at 18 h in [3], in [4], in [5], in [6], in data set [7] and in data set [8] was ≥ 200 µM in each case. For the same compound, the solubility at 18 h in [9] and in data set [10] was ≥ 200 µM in each case.

Take `CC(C)C[C@H](NC(=O)[C@H](C)NC(=O)[C@H](C)NC(=O)[C@@H](NC(=O)[C@H](CO)NC(=O)[C@H](CC(C)C)NC(=O)[C@H](CCC(=O)O)NC(=O)[C@H](CO)NC(=O)[C@H](C)NC(=O)CC[C@H](NC(=O)CCCCCCCCCCCCC(=O)O)C(=O)O)[C@@H](C)O)C(=O)NCC(=O)N[C@@H](CCCNC(=N)N)C(=O)N[C@@H](CC(C)C)C(=O)N[C@@H](CO)C(=O)N[C@@H](C)C(=O)N[C@@H](CCC(=O)O)C(=O)N[C@@H](CC(C)C)C(=O)N[C@@H](Cc1cnc[nH]1)C(=O)N[C@@H](CCC(=O)O)C(=O)N[C@@H](CC(C)C)C(=O)N[C@@H](C)C(=O)N[C@H](C(=O)N[C@@H](CC(C)C)C(=O)N1CCC[C@H]1C(=O)N[C@@H](CCCNC(=N)N)C(=O)N[C@H](C(=O)N[C@@H](CCC(=O)O)C(=O)N[C@H](C(=O)NCC(=O)N1CCC[C@H]1C(=O)N[C@@H](CCC(=O)O)C(=O)N[C@@H](CO)C(=O)N1CCC[C@H]1C(N)=O)[C@@H](C)O)[C@@H](C)O)[C@@H](C)O` ({C14 diacid-γGlu}-ASELSTAALGRLSAELHELATLPRTETGPESP-NH2): the IC50 in data set [1] is 1140 pM. In addition, the EC50 in [2] is 8 pM; at Calcitonin receptor, 3 pM. Moreover, the solubility at 18 h in data set [3], in [4], in data set [5], in [6], in [7] and in [8] was ≥ 200 µM each time. For the same compound, the solubility at 18 h in data set [9] and in data set [10] was ≥ 200 µM in each case.

For the compound `CC(C)C[C@H](NC(=O)[C@H](C)NC(=O)[C@H](C)NC(=O)[C@@H](NC(=O)[C@H](Cc1cnc[nH]1)NC(=O)[C@H](CC(C)C)NC(=O)[C@H](CCC(=O)O)NC(=O)[C@H](CO)NC(=O)[C@H](C)NC(=O)[C@H](CCC(=O)O)NC(=O)CCCCCCCCCCCCCCCCC(=O)O)[C@@H](C)O)C(=O)NCC(=O)N[C@@H](CCCNC(=N)N)C(=O)N[C@@H](CC(C)C)C(=O)N[C@@H](CO)C(=O)N[C@@H](C)C(=O)N[C@@H](CCC(=O)O)C(=O)N[C@@H](CC(C)C)C(=O)N[C@@H](Cc1cnc[nH]1)C(=O)N[C@@H](CCC(=O)O)C(=O)N[C@@H](CC(C)C)C(=O)N[C@@H](C)C(=O)N[C@H](C(=O)N[C@@H](CC(C)C)C(=O)N1CCC[C@H]1C(=O)N[C@@H](CCCNC(=N)N)C(=O)N[C@H](C(=O)N[C@@H](CCC(=O)O)C(=O)N[C@H](C(=O)NCC(=O)N1CCC[C@H]1C(=O)N[C@@H](CCC(=O)O)C(=O)N[C@@H](CO)C(=O)N1CCC[C@H]1C(N)=O)[C@@H](C)O)[C@@H](C)O)[C@@H](C)O` ({C18 diacid}-EASELHTAALGRLSAELHELATLPRTETGPESP-NH2), the IC50 in data set [1] was 1310 pM. Further, the EC50 was 15 pM in data set [2] and 9 pM at Calcitonin receptor. For the same compound, the solubility at 18 h in data set [3], in data set [4], in [5], in data set [6], in data set [7] and in [8] was ≥ 200 µM in each case. The solubility at 18 h in [9] and in [10] was ≥ 200 µM in each case.

For `CC(C)C[C@H](NC(=O)[C@H](CCC(=O)O)NC(=O)[C@H](Cc1cnc[nH]1)NC(=O)[C@H](CC(C)C)NC(=O)[C@H](CCC(=O)O)NC(=O)[C@H](C)NC(=O)[C@H](CO)NC(=O)[C@H](CC(C)C)NC(=O)[C@H](CCCNC(=N)N)NC(=O)CNC(=O)[C@H](CC(C)C)NC(=O)[C@@H](NC(=O)[C@H](C)NC(=O)[C@@H](NC(=O)[C@H](CO)NC(=O)[C@H](CC(C)C)NC(=O)[C@@H]1CCCN1C(=O)[C@H](CO)NC(=O)[C@H](C)NC(=O)[C@H](CCC(=O)O)NC(=O)CCCCCCCCCCCCCCCCC(=O)O)[C@@H](C)O)C(C)C)C(=O)N[C@@H](C)C(=O)N[C@H](C(=O)N[C@@H](CC(C)C)C(=O)N1CCC[C@H]1C(=O)N[C@@H](CCCNC(=N)N)C(=O)N[C@H](C(=O)N[C@@H](CCC(=O)O)C(=O)N[C@H](C(=O)NCC(=O)N1CCC[C@H]1C(=O)N[C@@H](CCC(=O)O)C(=O)N[C@@H](CO)C(=O)N1CCC[C@H]1C(N)=O)[C@@H](C)O)[C@@H](C)O)[C@@H](C)O` ({C18 diacid}-EASPLSTAVLGRLSAELHELATLPRTETGPESP-NH2), the IC50 in [1] is 323 pM. Besides, the EC50 in [2] is 14 pM; on Calcitonin receptor it was 7 pM. In addition, the solubility at 18 h in data set [3], in data set [4], in data set [5], in [6], in [7] and in [8] was ≥ 200 µM in each case. The solubility at 18 h in data set [9] and in data set [10] was ≥ 200 µM in each case.

By IC50 is commonly meant the point on the concentration scale where inhibition reaches its midpoint. Broadly, the EC50 is the concentration that produces a half-maximal response. By solubility is commonly meant the concentration that dissolves in the medium under given conditions. A lower solubility goes with a poorly soluble substance.
